Some test systems named below: A498; ACHN; COLO 205; HCT-116; HOP-92; HT-29; K562; LOX IMVI; M14; MDA-MB-231; MOLT-4; NCI-H23; NCI/ADR-RES; OVCAR-5; SK-OV-3; SNB-19; SR; SW-620; U-251.
Test in all cases: NCI-60 cell line screen, 48 h

Molecules are shown by their SMILES.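 Step 1: Grow cells in 96-well plates. Step 2: Expose to compound for 48 hours at 5 concentrations. Step 3: Interpolate endpoints linearly; if unreached, use highest concentration. GI50: concentration for 50% inhibition of growth.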 The source made the active and inactive calls. No stated cut-off is given here; in the data, active = GI50 up to about 1.1 µM and inactive = higher.

With `CC(C)(C)C1CCC2c3c([nH]c4ccccc34)C3C(=O)N(c4ccc(C(=O)O)cc4)C(=O)C3C2C1` (stereo not given), the GI50 was 18.2 µM (inactive) in the experiment with A498; 11.7 µM (inactive) in the experiment on ACHN; 19 µM (inactive) in the experiment on COLO 205; 14.4 µM (inactive) with HCT-116; 11.2 µM (inactive) in the experiment on HOP-92; 12.9 µM (inactive) in the experiment with HT-29. The GI50 in the experiment with K562 was 4.43 µM (inactive); in the experiment with LOX IMVI, 14.5 µM (inactive); in the experiment with M14, 16.8 µM (inactive); in the experiment with MDA-MB-231, 15.5 µM (inactive); with MOLT-4, 0.1 µM (active); with NCI-H23 it was 17.7 µM (inactive). The GI50 in the experiment on NCI/ADR-RES is 16.7 µM (inactive); with OVCAR-5, 21.9 µM (inactive); in the experiment on SK-OV-3 it was 17.5 µM (inactive); in the experiment on SNB-19 it was 16.8 µM (inactive); in the experiment with SR it was 25 µM (inactive); in the experiment on SW-620, 13.6 µM (inactive). Moreover, in the experiment with U-251, the GI50 is 13.4 µM (inactive).
In the case of `O=C1/C(=C/c2ccc(O)cc2)NC(=S)N1CN1CCCCC1`, the GI50 is 96.6 µM (inactive) in the experiment on A498; 45.7 µM (inactive) with ACHN; 21 µM (inactive) with COLO 205; 45.8 µM (inactive) in the experiment on HCT-116; 54.6 µM (inactive) in the experiment with HOP-92; 43 µM (inactive) in the experiment on HT-29. The GI50 is 72.6 µM (inactive) with K562; 40.1 µM (inactive) in the experiment with LOX IMVI; 59.2 µM (inactive) with M14; > 100 µM (inactive) with MDA-MB-231; 62.7 µM (inactive) with MOLT-4; > 100 µM (inactive) in the experiment with NCI-H23. For the same compound, the GI50 in the experiment on NCI/ADR-RES was > 100 µM (inactive); with OVCAR-5, > 100 µM (inactive); in the experiment on SK-OV-3 it was > 100 µM (inactive); with SNB-19, 89.5 µM (inactive); with SR it was 49.2 µM (inactive); in the experiment on SW-620 it was 36.6 µM (inactive). Moreover, the GI50 with U-251 is 49.8 µM (inactive).
Consider `C/C(=C/CC[C@]1(CO)CC[C@]2(CO)[C@H](CC[C@@H]3[C@@]4(C)CC[C@H](OC5OCC(O)C(O)C5OC5OC(CO)C(O)C(O)C5O)C(C)(C)[C@@H]4CC[C@]32C)[C@H]1O)CO` (stereo not given in full), for which the GI50 in the experiment with A498, with ACHN, with COLO 205, with HCT-116, in the experiment with HOP-92 and in the experiment with HT-29 was > 100 µM (inactive) throughout. For the same compound, the GI50 in the experiment on K562, in the experiment on LOX IMVI, in the experiment with M14, in the experiment with MDA-MB-231, in the experiment with MOLT-4 and in the experiment with NCI-H23 was > 100 µM (inactive) throughout. The GI50 with NCI/ADR-RES, with OVCAR-5, with SK-OV-3, with SNB-19, with SR and in the experiment on SW-620 was > 100 µM (inactive) throughout. Further, the GI50 with U-251 was > 100 µM (inactive).
For `CC(CC(=O)CO[C@H]1[C@H](O)[C@@H](O)[C@@H](O)[C@@H]2NC(=O)c3c(cc4c(c3O)OCO4)[C@H]21)OC1OC(CO)C(O)C(O)C1O` (stereo not given in full), the GI50 is 1.09 µM (active) in the experiment on A498; 0.444 µM (active) in the experiment on ACHN; 0.272 µM (active) in the experiment on COLO 205; 0.275 µM (active) with HCT-116; 0.51 µM (active) in the experiment with HOP-92; 0.452 µM (active) in the experiment on HT-29. The GI50 was 0.309 µM (active) with K562; 0.255 µM (active) with LOX IMVI; 0.425 µM (active) with M14; 0.355 µM (active) in the experiment with MDA-MB-231; 0.25 µM (active) in the experiment on MOLT-4; 0.441 µM (active) in the experiment with NCI-H23. The GI50 in the experiment on NCI/ADR-RES was 0.543 µM (active); in the experiment with OVCAR-5 it was 1.26 µM (inactive); in the experiment on SK-OV-3, 0.469 µM (active); in the experiment with SNB-19, 0.304 µM (active); with SR it was 0.325 µM (active); in the experiment on SW-620, 0.374 µM (active). For the same compound, in the experiment with U-251, the GI50 was 0.239 µM (active).
Consider `COc1ccc(Nc2nc3ccccc3n3cccc23)cc1OC`, for which the GI50 in the experiment with A498 is 17.9 µM (inactive); in the experiment with ACHN, 21 µM (inactive); with COLO 205 it was 14.4 µM (inactive); in the experiment with HCT-116, 16.9 µM (inactive); in the experiment on HOP-92, 34.4 µM (inactive); in the experiment with HT-29, 7.74 µM (inactive). Moreover, the GI50 is 21 µM (inactive) in the experiment with K562; 14.4 µM (inactive) in the experiment with LOX IMVI; 15.8 µM (inactive) with M14; 15.3 µM (inactive) in the experiment on MDA-MB-231; 9.98 µM (inactive) in the experiment on MOLT-4; 14.8 µM (inactive) in the experiment with NCI-H23. Also, the GI50 was 17.4 µM (inactive) with NCI/ADR-RES; 32.7 µM (inactive) in the experiment on OVCAR-5; 27 µM (inactive) in the experiment on SK-OV-3; 33.7 µM (inactive) in the experiment on SNB-19; 12.8 µM (inactive) in the experiment with SR; 16.2 µM (inactive) in the experiment with SW-620. Further, the GI50 with U-251 was 16.9 µM (inactive).
As for `N=c1oc2cc(O)ccc2cc1C(=O)Nc1cccc2ccccc12`, the GI50 was 5.25 µM (inactive) with A498; 3.99 µM (inactive) with ACHN; 15.2 µM (inactive) with COLO 205; 3.39 µM (inactive) with HCT-116; 4.31 µM (inactive) in the experiment on HOP-92; 7.6 µM (inactive) in the experiment with HT-29. Besides, the GI50 in the experiment on K562 is 3.33 µM (inactive); in the experiment with LOX IMVI, 4.86 µM (inactive); with M14, 7 µM (inactive); in the experiment with MDA-MB-231, 3.06 µM (inactive); in the experiment with MOLT-4, 2.7 µM (inactive); in the experiment on NCI-H23 it was 3.7 µM (inactive). The GI50 is 1.82 µM (inactive) with NCI/ADR-RES; 13.5 µM (inactive) with OVCAR-5; 6.65 µM (inactive) in the experiment on SK-OV-3; 4.68 µM (inactive) in the experiment on SNB-19; 1.67 µM (inactive) with SR; 3.4 µM (inactive) in the experiment on SW-620. In addition, the GI50 in the experiment with U-251 is 3.53 µM (inactive).
For `Cc1ccc(S(=O)(=O)N2C[C@@H]3CC[C@]4(CO[Si](C)(C)C(C)(C)C)N[C@@H](c5ccccc5)[C@H]2[C@H]34)cc1`, the GI50 with A498 was 48.8 µM (inactive); in the experiment with ACHN, 37.2 µM (inactive); in the experiment on COLO 205, 17.6 µM (inactive); with HCT-116, 12 µM (inactive); in the experiment on HOP-92 it was 3.44 µM (inactive); in the experiment with HT-29, 13.2 µM (inactive). Moreover, the GI50 is 9.02 µM (inactive) in the experiment with K562; 28 µM (inactive) in the experiment on LOX IMVI; 61.7 µM (inactive) with M14; 28.1 µM (inactive) in the experiment on MDA-MB-231; 19 µM (inactive) in the experiment on MOLT-4; 11.4 µM (inactive) in the experiment on NCI-H23. Also, the GI50 in the experiment on NCI/ADR-RES is 25.9 µM (inactive); in the experiment on OVCAR-5, 77.8 µM (inactive); with SK-OV-3, 68.1 µM (inactive); in the experiment with SNB-19, 61.4 µM (inactive); in the experiment on SR, 16.2 µM (inactive); with SW-620, 47.3 µM (inactive). Besides, the GI50 in the experiment on U-251 is 46.5 µM (inactive).
Consider `CC1(C)CC(=O)c2c(nc3ccc4ccccc4c3c2-c2ccc(NC(=O)CCCCCCCCC(=O)Nc3ccc(-c4c5c(nc6ccc7ccccc7c46)CC(C)(C)CC5=O)cc3)cc2)C1`, for which the GI50 with A498, in the experiment on ACHN, with COLO 205, in the experiment on HCT-116, in the experiment on HOP-92 and in the experiment on HT-29 was > 100 µM (inactive) throughout. Also, the GI50 in the experiment on K562, in the experiment on LOX IMVI, with M14, in the experiment with MDA-MB-231, in the experiment on MOLT-4 and with NCI-H23 was > 100 µM (inactive) each time. Moreover, the GI50 with NCI/ADR-RES, in the experiment on OVCAR-5, with SK-OV-3, in the experiment on SNB-19, in the experiment on SR and with SW-620 was > 100 µM (inactive) each time. In addition, the GI50 in the experiment with U-251 is > 100 µM (inactive).
Turning to `Cc1ccc(C(=N)Nc2ccccc2)cc1`, the GI50 with A498 is > 100 µM (inactive); in the experiment with ACHN, > 100 µM (inactive); in the experiment on COLO 205 it was 20.9 µM (inactive); with HCT-116, > 100 µM (inactive); with HOP-92, > 100 µM (inactive); with HT-29, 69.7 µM (inactive). Also, the GI50 in the experiment with K562, in the experiment with LOX IMVI, with M14, in the experiment with MDA-MB-231, with MOLT-4 and in the experiment with NCI-H23 was > 100 µM (inactive) throughout. Besides, the GI50 in the experiment on NCI/ADR-RES, in the experiment with OVCAR-5, in the experiment on SK-OV-3, in the experiment on SNB-19, in the experiment with SR and in the experiment with SW-620 was > 100 µM (inactive) in each case. Further, the GI50 in the experiment with U-251 was > 100 µM (inactive).
With `O=C1c2cccc([N+](=O)[O-])c2C(=O)N1Cc1ccccc1`, the GI50 in the experiment with A498, in the experiment with ACHN, in the experiment on COLO 205, in the experiment with HCT-116, with HOP-92 and in the experiment on HT-29 was > 100 µM (inactive) throughout. For the same compound, the GI50 with K562, in the experiment on LOX IMVI, with M14, in the experiment on MDA-MB-231, in the experiment on MOLT-4 and with NCI-H23 was > 100 µM (inactive) throughout. Further, the GI50 in the experiment with NCI/ADR-RES, with OVCAR-5, in the experiment on SK-OV-3, with SNB-19, with SR and with SW-620 was > 100 µM (inactive) throughout. Besides, in the experiment with U-251, the GI50 was > 100 µM (inactive).

The record behind these values is ChEMBL document CHEMBL1201862, “PubChem BioAssay data set” (2004).
